Laboratory results published in patent publication US11780832B2, “Lactivicin compounds, their preparation and use as antibacterial agents” (priority 2021, dated 2023).
≈ marks a conversion by molar mass, not a printed value. Read-outs that look alike come from different tables or passages of the source.

Tests used:
Type in all cases: cell-based
[1] = tested on: Enterobacter cloacae species complex Elevated AmpC; experiment: MIC against Elevated AmpC producing strains, compound alone
Protocol: (§1) Gram-negative and Gram-positive bacterial strains used during the in vitro minimum inhibitory concentration (MIC) determination were obtained either from the American Type Culture Collection (ATCC) or from clinical specimens. All strains were characterized genotypically and the respective antibiotic resistance markers for each strain were identified.
(§2) Isolates were sub-cultured onto appropriate media and stocked in skim milk at −80° C. Following two subcultures from frozen stock, in vitro antimicrobial susceptibility testing was performed using the Clinical and Laboratory Standards Institute (CLSI) broth microdilution method. Briefly, fresh cultures were suspended in culture media to give a final stock inoculum size of 5×10^7 colony forming units per milliliter of broth (CFU/mL). Test compounds were prepared at a stock solution concentration equal to 128 μg/mL, then diluted to give a final an initial working concentration of 32 μg/mL. 100 μL of the stock solutions were added to the first wells in a 96-well plate and were then diluted using a 2-fold dilution method to give a range of 32-0.025 μg/mL. 100 μL of the bacterial suspensions were then added to the 96-well plates to give a final working inoculum size of 5×10^5 CFU/mL. The final compound concentration range was 16-0.0125 μg/mL. […] MICs for comparator agents were determined using custom-designed, in-house prepared 96-well broth microdilution panels.

[2] = tested on: Citrobacter freundii species complex Elevated AmpC; experiment: as above; details: row r16
Protocol: as §1, §2

[3] = tested on: Escherichia coli Elevated AmpC; experiment: as above
Protocol: as §1, §2

[4] = tested on: Pseudomonas aeruginosa ATCC 27853; experiment: MIC, CLSI broth microdilution; details: ATCC27853
In short: (§3)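 MIC values come from CLSI broth microdilution against clinical and ATCC isolates whose resistance genes had been characterized. Compound dilutions were two-fold, with final concentrations between 16 and 0.0125 μg/mL.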

[5] = tested on: Enterobacter cloacae species complex NDM-1; experiment: MIC, CLSI broth microdilution
In short: as §3

[6] = tested on: Klebsiella pneumoniae KPC-2; experiment: MIC, CLSI broth microdilution; details: KPC2
In short: as §3

[7] = tested on: Klebsiella pneumoniae KPC-3; experiment: MIC, CLSI broth microdilution; details: KPC3
In short: as §3

Escherichia coli CMY-2 = experiment: MIC, CLSI broth microdilution; details: CMY2
In short: as §3

[8] = tested on: Escherichia coli ATCC 25922; experiment: MIC, CLSI broth microdilution; details: ATCC25922
In short: as §3

[9] = tested on: Klebsiella pneumoniae OXA-163, OXA-1_OXA-30, SHV-1, TEM-1; experiment: MIC, CLSI broth microdilution
In short: (§4)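 The read-out is the minimum inhibitory concentration determined by CLSI broth microdilution. Final compound levels ran from 16 to 0.0125 μg/mL in two-fold steps against about 5×10^5 CFU/mL of genotypically characterized bacteria.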

[10] = tested on: Serratia marcescens SME-2; experiment: MIC, CLSI broth microdilution; details: SME2
In short: as §3

Escherichia coli SHV-12 = experiment: MIC, CLSI broth microdilution; details: SHV12
In short: as §3

[11] = tested on: Klebsiella pneumoniae SHV-12; experiment: MIC, CLSI broth microdilution; details: SHV12
In short: as §3

[12] = tested on: Klebsiella oxytoca KPC-2, TEM-1; experiment: MIC, CLSI broth microdilution
In short: as §3

[13] = tested on: Citrobacter freundii species complex OXA-181; experiment: MIC, CLSI broth microdilution
In short: as §3

[14] = tested on: Klebsiella aerogenes VIM-1, SHV-12; experiment: MIC, CLSI broth microdilution
In short: as §3

[15] = tested on: Pseudomonas aeruginosa AmpC overexpressed; experiment: MIC, CLSI broth microdilution
In short: as §4

[16] = tested on: Serratia marcescens AmpC overexpressed; experiment: MIC, CLSI broth microdilution
In short: as §4

[17] = tested on: Klebsiella pneumoniae OXA-48, SHV-1; experiment: MIC, CLSI broth microdilution
In short: as §4

[18] = tested on: Pseudomonas aeruginosa OprD negative; experiment: MIC, CLSI broth microdilution
In short: as §4

[19] = tested on: Escherichia coli CTX-M-15; experiment: MIC, CLSI broth microdilution; details: CTXM15
In short: as §3

[20] = tested on: Acinetobacter baumannii ATCC 19606; experiment: MIC, CLSI broth microdilution; details: ATCC19606
In short: as §3

[21] = tested on: Klebsiella pneumoniae CMY-DHA; experiment: Synergistic activity: MIC in the presence of Avibactam; details: row r32, in the presence of Avibactam @ 4 μg/mL
Protocol: as §2
The same method used to test the activity of the claimed compounds was used to determine their synergistic activity when combined with a β-lactamase inhibitor except that either a fixed concentration or fixed ratio of a β-lactamase inhibitor was added to the 96-well plates prior to adding the bacteria cultures. Synergistic activity was defined as the reduction of MIC of a given compound when tested using the β-lactamase inhibitor versus testing the compound in the absence of a β-lactamase inhibitor.

[22] = tested on: Proteus mirabilis CMY-DHA; experiment: MIC against CMY-DHA producing strains, compound alone; details: row r36
Protocol: as §1, §2

[23] = tested on: Klebsiella pneumoniae CMY-DHA; experiment: as above; details: row r32
Protocol: as §1, §2

Escherichia coli CMY-DHA = experiment: as above
Protocol: as §1, §2

Structure (SMILES)	MIC [1]	MIC ([1]; strain of row r7)	MIC ([1]; strain of row r20)	MIC [2]	MIC ([3]; strain of row r10)	MIC ([3]; strain of row r11)	MIC ([3]; strain of row r12)	MIC ([3]; strain of row r13)	MIC ([3]; strain of row r14)	MIC ([3]; strain of row r15)	MIC [4]	MIC [5]	MIC [6]	MIC [7]	MIC (Escherichia coli CMY-2)	MIC [8]	MIC [9]	MIC [10]	MIC (Escherichia coli SHV-12)	MIC [11]	further results
Nc1nc(/C(=N/OC2(C(=O)O)CC2)C(=O)N[C@H]2CON(C3(C(=O)O)C[C@H](N4C(=O)c5cc(O)c(O)cc5C4=O)C(=O)O3)C2=O)cs1 (stereo partly drawn) [Cmpd 1, (4S)-2-[(4S)-4-{[(2Z)-2-(2-amino-1,3-thiazol-4-yl)-2-{[(1-carboxycyclopropyl)oxy]imino}acetyl]amino}-3-oxo-1,2-oxazolidin-2-yl]-4-(5,6-dihydroxy-1,3-dioxo-1,3-dihydro-2H-isoindol-2-yl)-5-oxooxolane-2-carboxylic acid]	0.5 µg/mL (≈ 0.757 µM)	2 µg/mL (≈ 3.03 µM)	0.25 µg/mL (≈ 0.378 µM)	0.5 µg/mL (≈ 0.757 µM)	0.015 µg/mL (≈ 0.0227 µM)	0.25 µg/mL (≈ 0.378 µM)	0.5 µg/mL (≈ 0.757 µM)	0.06 µg/mL (≈ 0.0908 µM)	0.06 µg/mL (≈ 0.0908 µM)	0.12 µg/mL (≈ 0.182 µM)	0.12 µg/mL (≈ 0.182 µM)	0.12 µg/mL (≈ 0.182 µM)	0.12 µg/mL (≈ 0.182 µM)	0.0149 µg/mL (≈ 0.0226 µM)	1 µg/mL (≈ 1.51 µM)	0.06 µg/mL (≈ 0.0908 µM)	0.06 µg/mL (≈ 0.0908 µM)	0.06 µg/mL (≈ 0.0908 µM)	0.5 µg/mL (≈ 0.757 µM)	0.0149 µg/mL (≈ 0.0226 µM)	MIC [12]: 0.0149 µg/mL (≈ 0.0226 µM); MIC ([13]; Citrobacter freundii species complex, OXA-181, read-out: MIC): 0.03 µg/mL (≈ 0.0454 µM); MIC [14]: 0.5 µg/mL (≈ 0.757 µM); MIC [15]: 0.5 µg/mL (≈ 0.757 µM); MIC [16]: 0.12 µg/mL (≈ 0.182 µM); MIC [17]: 0.0149 µg/mL (≈ 0.0226 µM); MIC [18]: 0.12 µg/mL (≈ 0.182 µM); MIC [19]: 1 µg/mL (≈ 1.51 µM); MIC [20]: 0.03 µg/mL (≈ 0.0454 µM); MIC [21]: 0.5 µg/mL; MIC [22]: 2 µg/mL (≈ 3.03 µM); MIC [23]: 1 µg/mL (≈ 1.51 µM); MIC (Escherichia coli CMY-DHA; strain of row r26): 1 µg/mL (≈ 1.51 µM); MIC (Escherichia coli CMY-DHA; strain of row r27): 0.06 µg/mL (≈ 0.0908 µM); MIC (Escherichia coli CMY-DHA; strain of row r28): 0.25 µg/mL (≈ 0.378 µM); MIC (Escherichia coli CMY-DHA; strain of row r29): 0.5 µg/mL (≈ 0.757 µM); MIC (Escherichia coli CMY-DHA; strain of row r30): 0.5 µg/mL (≈ 0.757 µM); MIC (Escherichia coli CMY-DHA; strain of row r31): 2 µg/mL (≈ 3.03 µM); MIC (Escherichia coli CMY-DHA; strain of row r34): 0.25 µg/mL (≈ 0.378 µM); MIC (Escherichia coli CMY-DHA; strain of row r35): 0.25 µg/mL (≈ 0.378 µM)
Nc1nc(/C(=N/OC2(C(=O)O)CCOCC2)C(=O)N[C@H]2CON(C3(C(=O)O)C[C@H](N4C(=O)c5cc(O)c(O)cc5C4=O)C(=O)O3)C2=O)cs1 (stereo partly drawn) [Cmpd 8, 4-({(Z)-[1-(2-amino-1,3-thiazol-4-yl)-2-({(4S)-2-[(4S)-2-carboxy-4-(5,6-dihydroxy-1,3-dioxo-1,3-dihydro-2H-isoindol-2-yl)-5-oxooxolan-2-yl]-3-oxo-1,2-oxazolidin-4-yl}amino)-2-oxoethylidene]amino}oxy)oxane-4-carboxylic acid]	0.5 µg/mL (≈ 0.71 µM)	2 µg/mL (≈ 2.84 µM)	0.12 µg/mL (≈ 0.17 µM)	0.25 µg/mL (≈ 0.355 µM)	0.015 µg/mL (≈ 0.0213 µM)	0.12 µg/mL (≈ 0.17 µM)	0.25 µg/mL (≈ 0.355 µM)	0.03 µg/mL (≈ 0.0426 µM)	0.06 µg/mL (≈ 0.0852 µM)	0.12 µg/mL (≈ 0.17 µM)	0.12 µg/mL (≈ 0.17 µM)	0.25 µg/mL (≈ 0.355 µM)	0.12 µg/mL (≈ 0.17 µM)	0.0149 µg/mL (≈ 0.0211 µM)	1 µg/mL (≈ 1.42 µM)	0.06 µg/mL (≈ 0.0852 µM)	0.06 µg/mL (≈ 0.0852 µM)	0.06 µg/mL (≈ 0.0852 µM)	1 µg/mL (≈ 1.42 µM)	0.0149 µg/mL (≈ 0.0211 µM)	MIC [12]: 0.0149 µg/mL (≈ 0.0211 µM); MIC ([13]; Citrobacter freundii): 0.0149 µg/mL (≈ 0.0211 µM); MIC [14]: 2 µg/mL (≈ 2.84 µM); MIC [15]: 0.5 µg/mL (≈ 0.71 µM); MIC [16]: 0.06 µg/mL (≈ 0.0852 µM); MIC [17]: 0.0149 µg/mL (≈ 0.0211 µM); MIC [18]: 0.12 µg/mL (≈ 0.17 µM); MIC [19]: 2 µg/mL (≈ 2.84 µM); MIC [20]: 0.12 µg/mL (≈ 0.17 µM); MIC [21]: 0.25 µg/mL; MIC [22]: 4 µg/mL (≈ 5.68 µM); MIC [23]: 1 µg/mL (≈ 1.42 µM); MIC (Escherichia coli CMY-DHA; strain of row r26): 1 µg/mL (≈ 1.42 µM); MIC (Escherichia coli CMY-DHA; strain of row r27): 0.06 µg/mL (≈ 0.0852 µM); MIC (Escherichia coli CMY-DHA; strain of row r28): 0.25 µg/mL (≈ 0.355 µM); MIC (Escherichia coli CMY-DHA; strain of row r29): 0.5 µg/mL (≈ 0.71 µM); MIC (Escherichia coli CMY-DHA; strain of row r30): 0.25 µg/mL (≈ 0.355 µM); MIC (Escherichia coli CMY-DHA; strain of row r31): 1 µg/mL (≈ 1.42 µM); MIC (Escherichia coli CMY-DHA; strain of row r34): 0.12 µg/mL (≈ 0.17 µM); MIC (Escherichia coli CMY-DHA; strain of row r35): 0.25 µg/mL (≈ 0.355 µM)
